Assay in all cases: competitive isoTOP-ABPP
Common to all, as to assay type: binding

One assay deals with T1, FAM136A Protein FAM136A (Homo sapiens, UniProt Q96C01).
T1 construct: isoTOP-ABPP experiments performed in cell lysates (in vitro); endogenous in cells; host or cells: soluble proteome of human cancer cell lines (MDA-MB-231; Ramos and Jurkat also prepared)
As to conditions: 50 uM, in vitro; for isoTOP-ABPP reactivity ratio at lysine Q96C01_K99: 231 sol; for isoTOP-ABPP ratio (R) at liganded lysine Q96C01_K99: sol, 231. The essentials: (§1)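 Fragments at 50 μM (activated esters) or 100 μM (guanidinylating agents) were incubated with 0.5 ml lysate before probe labeling. After 0.1 mM STP-alkyne for 1 h, samples were clicked to isotopically distinct TEV tags, and R taken as DMSO-over-compound MS1 peak-area ratio.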

Assay [1] addresses T2, RPS10 40S ribosomal protein S10 (Homo sapiens, UniProt P46783).
T2 construct: isoTOP-ABPP experiments performed in cell lysates (in vitro); endogenous in cells; host or cells: soluble proteome of human cancer cell lines (MDA-MB-231; Ramos and Jurkat also prepared)
The settings on record: 50 uM, in vitro; for isoTOP-ABPP reactivity ratio at lysine P46783_K139: 231 sol; for isoTOP-ABPP ratio (R) at liganded lysine P46783_K139: sol, 231. The essentials: as §1

The next assay has as its target T3, RTN4 Reticulon-4 (Homo sapiens, UniProt Q9NQC3).
T3 construct: endogenous in cells; host or cells: MDA-MB-231 lysate
T3 sequence (Q9NQC3 1-1192): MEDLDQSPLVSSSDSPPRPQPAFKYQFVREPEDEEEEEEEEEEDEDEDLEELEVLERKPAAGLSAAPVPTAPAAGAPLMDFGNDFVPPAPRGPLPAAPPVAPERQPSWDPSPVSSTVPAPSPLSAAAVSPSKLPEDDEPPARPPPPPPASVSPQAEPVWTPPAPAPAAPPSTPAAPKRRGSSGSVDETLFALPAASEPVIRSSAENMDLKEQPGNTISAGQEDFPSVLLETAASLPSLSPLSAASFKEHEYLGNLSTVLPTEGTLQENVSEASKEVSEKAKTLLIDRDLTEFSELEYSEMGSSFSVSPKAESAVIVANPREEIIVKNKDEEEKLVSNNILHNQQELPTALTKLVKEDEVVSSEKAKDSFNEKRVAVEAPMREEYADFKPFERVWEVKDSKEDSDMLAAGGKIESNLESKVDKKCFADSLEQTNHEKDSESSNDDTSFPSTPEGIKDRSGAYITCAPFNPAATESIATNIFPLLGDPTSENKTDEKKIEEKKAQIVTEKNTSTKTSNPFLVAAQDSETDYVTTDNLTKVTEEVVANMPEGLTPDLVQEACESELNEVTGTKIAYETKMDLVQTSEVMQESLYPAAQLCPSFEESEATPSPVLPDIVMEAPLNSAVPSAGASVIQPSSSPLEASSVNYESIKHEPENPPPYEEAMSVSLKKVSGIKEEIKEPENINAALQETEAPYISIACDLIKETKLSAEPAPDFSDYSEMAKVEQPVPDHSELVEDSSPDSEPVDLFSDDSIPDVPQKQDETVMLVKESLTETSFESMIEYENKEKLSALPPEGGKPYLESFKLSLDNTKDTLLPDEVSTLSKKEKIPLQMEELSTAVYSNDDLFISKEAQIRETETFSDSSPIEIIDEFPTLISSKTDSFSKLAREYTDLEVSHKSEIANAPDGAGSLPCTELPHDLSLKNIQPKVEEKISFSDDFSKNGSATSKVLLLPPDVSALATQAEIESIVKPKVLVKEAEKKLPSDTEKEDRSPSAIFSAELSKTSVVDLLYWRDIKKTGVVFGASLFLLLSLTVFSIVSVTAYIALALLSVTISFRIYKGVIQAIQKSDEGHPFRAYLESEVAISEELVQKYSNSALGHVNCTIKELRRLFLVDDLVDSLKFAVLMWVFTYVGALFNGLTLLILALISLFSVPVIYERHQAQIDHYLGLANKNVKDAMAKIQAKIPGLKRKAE
As to conditions: 50 uM, in vitro; for isoTOP-ABPP reactivity ratio at lysine Q9NQC3_K1104: 231 sol; for isoTOP-ABPP ratio (R) at liganded lysine Q9NQC3_K1104: sol, 231. The essentials:
as §1

T1 sequence (Q96C01 whole entry): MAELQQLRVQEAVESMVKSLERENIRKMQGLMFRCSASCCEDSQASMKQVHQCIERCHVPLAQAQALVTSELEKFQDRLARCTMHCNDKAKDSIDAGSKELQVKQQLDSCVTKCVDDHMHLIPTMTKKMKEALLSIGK

`O=C(CCc1cn(-c2ccccc2)nc1-c1ccccc1)Oc1ccc([N+](=O)[O-])cc1[N+](=O)[O-]` [fragment 29, 2,4-Dinitrophenyl 3-(1,3-diphenyl-1H-pyrazol-4-yl)propanoate]: the “isoTOP-ABPP reactivity ratio at lysine Q96C01_K99” value at FAM136A Protein FAM136A was 0.8. Also, the “isoTOP-ABPP reactivity ratio at lysine P46783_K139” value in assay [1] stood at 20.0. Further, the “isoTOP-ABPP reactivity ratio at lysine Q9NQC3_K1104” value on RTN4 Reticulon-4 amounted to 15.6.

As for `COc1cc(CCC(=O)Oc2ccc([N+](=O)[O-])cc2[N+](=O)[O-])cc(OC)c1OC` [fragment 33, 2,4-Dinitrophenyl 3-(3,4,5-trimethoxyphenyl)propanoate], at FAM136A Protein FAM136A, the “isoTOP-ABPP reactivity ratio at lysine Q96C01_K99” value is given as 0.7. The “isoTOP-ABPP reactivity ratio at lysine P46783_K139” value in assay [1] came out at 0.7. Moreover, the “isoTOP-ABPP reactivity ratio at lysine Q9NQC3_K1104” value on RTN4 Reticulon-4 was 4.3.

Take `O=C(Oc1ccc([N+](=O)[O-])cc1[N+](=O)[O-])c1ccc(-c2ccccc2)cc1` [fragment 37, 2,4-Dinitrophenyl [1,1′-biphenyl]-4-carboxylate]: the “isoTOP-ABPP ratio (R) at liganded lysine Q96C01_K99” value at FAM136A Protein FAM136A is recorded as 1.0. Besides, in assay [1], the “isoTOP-ABPP ratio (R) at liganded lysine P46783_K139” value was determined as 0.6. Besides, the “isoTOP-ABPP ratio (R) at liganded lysine Q9NQC3_K1104” value at RTN4 Reticulon-4 was 3.4.

For the compound `O=C(Oc1ccc([N+](=O)[O-])cc1[N+](=O)[O-])C(c1ccccc1)(c1ccccc1)c1ccccc1` [fragment 42, 2,4-Dinitrophenyl 2,2,2-triphenylacetate], the “isoTOP-ABPP ratio (R) at liganded lysine Q96C01_K99” value on FAM136A Protein FAM136A is recorded as 0.9. Moreover, the “isoTOP-ABPP ratio (R) at liganded lysine P46783_K139” value in assay [1] amounted to 1.0. Moreover, the “isoTOP-ABPP ratio (R) at liganded lysine Q9NQC3_K1104” value at RTN4 Reticulon-4 came to 1.2.
